Values quoted from earlier work as cited in patent publication US20090291465A1, “Screening Method for Identifying New Drugs” (FUNDACIÓ PRIVADA PARC CIENTÍFIC DE BARCELONA, priority 2006, published 2009).

Columns and labels:
[1] = system: isoleucyl-tRNA synthetases (IIeRS)
[2] = limits its use to topical applications

For `C/C(=C\C(=O)OCCCCCCCCC(=O)O)C[C@@H]1OC[C@H](C[C@@H]2O[C@H]2[C@@H](C)[C@H](C)O)[C@@H](O)[C@H]1O` [Pseudomonic acid], the “selectivity for pathogen vs. mammalian IIeRS” value [1] is given as ~8000 fold and the systemic bioavailability [2] is given as “lack of systemic bioavailability”.
